Assays:
Type in all cases: cell-based
[1] = target: T1, FAK and IGF-1R (Homo sapiens, UniProt Q05397); assay: Coimmunoprecipitation of FAK and IGF-1R in A375 melanoma cells; conditions: average IC50, A375 cells, immunoprecipitation with antibody against FAK; read-out: IC50, disruption of FAK/IGF-1R binding
T1 construct: endogenous in cells; host or cells: C8161 (A2) and A375 (A3) melanoma cells
Source text: Computational Docking The crystal structures of the N-terminal domain of FAK (PDB code 2AL6) (22) and the kinase domain of IGF-1R(PDB 1P40A) (23) were utilized for in silico molecular modeling of their interaction as previously described. The three-dimensional coordinates of compound NSC344553 (INT2-31), obtained from the database of the National Cancer Institute, Developmental Therapeutics Program (NCI/DTP), were docked onto the predicted interface of the amino-terminus of FAK (amino acids 127-243) with the intracytoplasmic portion of IGF-1R (21). […] 100 orientations were created for NSC344553 in the target site and were scored using the computer program grid-based scoring function. […] The intermolecular energies for all configurations of NSC 344553 in binding to FAK-NT2 were calculated as the sum of electrostatic and van der Waals energies. These energy terms were evaluated as correlation functions, which were computed efficiently with Fast Fourier Transforms. […] Bound proteins were boiled in 6× Laemmli buffer and analyzed by SDS-PAGE and Western blotting. […] The intensity of the bands in the western blots was measured with scion image analysis software program. […]

[2] = test system: TE3 esophageal cancer cells; assay: Cell viability (MTT), TE3; conditions: TE3, 72 hours; read-out: IC50 of INT2-31, cell viability
Description: (§1) Cell viability (MTT) and CFSE Proliferation assay: Cells were plated in 96-well plates and let adhere overnight. After cell treatment, cell viability was measured by 3-(4,5-dimethylthiazol-2-yl)-2,5-diphenyl tetrazolium bromide (MTT) assay (CellTiter 96® Aqueous, Promega, Madison, Wis.).
(§2) Cell viability and detachment assays: After cells were treated with siRNA transfection, cell viability was measured by 3-(4,5-dimethylthiazol2-yl)-2,5-diphenyl tetrazolium bromide (MTT) assay (CellTiter 96® AQueous, Promega, Madison, Wis.). Briefly, 20 μl of the tetrazolium compound was added to each well. The cells were then incubated at 37° C. for 1 h. The plate was read at 490 nm with a plate reader to determine the viability. In detachment assays, detached and attached cells were harvested separately and counted in a hemocytometer. The percentage of detachment was calculated by dividing the number of detached cells by the total number of cells. Apoptosis assays: After treatment, attached and detached cells were collected, counted and prepared for terminal uridine deoxynucleotidyl transferase (TUNEL) assay by utilizing an APO-BRDU kit (BD Pharmingen, San Diego, Calif.) according to the manufacturer's instructions. Stained cells were analyzed with a fluorescence-activated cell sorting-Calibur flow cytometer (BD Biosciences). […] Apoptotic cells were also analyzed by Hoechst staining. […]

[3] = test system: KYSE140 esophageal cancer cells; assay: Cell viability (MTT), KYSE140
Description: as §1
Cell viability and detachment assays: After cells were treated with siRNA transfection, cell viability was measured by 3-(4,5-dimethylthiazol2-yl)-2,5-diphenyl tetrazolium bromide (MTT) assay (CellTiter 96® AQueous, Promega, Madison, Wis.). Briefly, 20 μl of the tetrazolium compound was added to each well. The cells were then incubated at 37° C. for 1 h. The plate was read at 490 nm with a plate reader to determine the viability. In detachment assays, detached and attached cells were harvested separately and counted in a hemocytometer. The percentage of detachment was calculated by dividing the number of detached cells by the total number of cells. Apoptosis assays: After treatment, attached and detached cells were collected, counted and prepared for terminal uridine deoxynucleotidyl transferase (TUNEL) assay by utilizing an APO-BRDU kit (BD Pharmingen, San Diego, Calif.) according to the manufacturer's instructions. Stained cells were analyzed with a fluorescence-activated cell sorting-Calibur flow cytometer (BD Biosciences). Calculation of the percentage of apoptotic cells in the sample was completed with CellQuest software (BD Biosciences). Apoptotic cells were also analyzed by Hoechst staining. Hoechst 33342 ([…]) was added to the fixed cells and the specimens were mounted on glass coverslips. The slides were viewed under the Zeiss microscope for apoptotic nuclei. The percent of apoptotic cells was calculated as the ratio of apoptotic cells to total number of cells.
In addition, the effect of INT2-31 on cell viability of esophageal, pancreatic and breast cancer cell lines was analyzed and the IC50 value for each cell line was determined, as shown in Table 1. […] Similar to melanoma results, INT2-31 inhibits viability more in cancer cells compared to normal cells. Sensitivity of the cells to INT2-31 varied and directly correlated to the FAK and IGF-1R expression level of the cells.

[4] = test system: BT474 breast cancer cells; assay: Cell viability (MTT), BT474; conditions: Homo sapiens, BT-474; BT474, 72 hours; read-out: IC50 of INT2-31, cell viability
Description: as §1, §2

[5] = test system: PARP, caspase-9, caspase 8; assay: Western blot of biochemical markers of the apoptotic pathway

T1 sequence (Q05397 2-1052 limits assumed): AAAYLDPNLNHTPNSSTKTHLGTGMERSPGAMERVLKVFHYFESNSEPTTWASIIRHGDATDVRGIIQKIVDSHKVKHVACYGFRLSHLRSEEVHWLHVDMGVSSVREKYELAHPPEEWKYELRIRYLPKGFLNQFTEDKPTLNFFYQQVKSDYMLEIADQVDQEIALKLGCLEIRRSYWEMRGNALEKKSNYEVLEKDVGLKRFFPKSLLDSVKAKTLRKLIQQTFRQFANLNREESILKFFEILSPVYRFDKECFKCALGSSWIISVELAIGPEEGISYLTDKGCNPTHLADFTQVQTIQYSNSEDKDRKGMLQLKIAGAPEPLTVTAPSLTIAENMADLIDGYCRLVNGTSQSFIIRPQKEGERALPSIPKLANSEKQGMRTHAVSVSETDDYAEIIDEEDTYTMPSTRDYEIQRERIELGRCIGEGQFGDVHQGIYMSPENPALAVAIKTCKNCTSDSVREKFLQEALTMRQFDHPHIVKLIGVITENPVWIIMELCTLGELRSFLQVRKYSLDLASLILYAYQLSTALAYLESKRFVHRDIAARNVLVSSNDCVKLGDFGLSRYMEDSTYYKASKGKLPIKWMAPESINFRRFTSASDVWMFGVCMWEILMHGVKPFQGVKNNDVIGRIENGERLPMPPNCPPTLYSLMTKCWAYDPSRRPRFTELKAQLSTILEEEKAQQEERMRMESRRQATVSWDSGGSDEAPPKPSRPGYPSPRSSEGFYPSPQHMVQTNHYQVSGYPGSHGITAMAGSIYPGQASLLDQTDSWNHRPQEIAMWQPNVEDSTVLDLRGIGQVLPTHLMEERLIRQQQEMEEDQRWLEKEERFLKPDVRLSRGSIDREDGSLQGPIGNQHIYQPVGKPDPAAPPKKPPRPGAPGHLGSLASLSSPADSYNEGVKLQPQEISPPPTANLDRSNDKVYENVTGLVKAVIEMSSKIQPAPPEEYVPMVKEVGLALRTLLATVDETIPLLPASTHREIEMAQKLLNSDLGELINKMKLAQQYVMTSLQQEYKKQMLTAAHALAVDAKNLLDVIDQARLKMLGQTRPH

CSc1ncnc2c1ccn2C1O[C@H](COP(=O)(O)O)[C@@H](O)[C@H]1O (stereo partly drawn) [INT2-31, 4-(Methylthio)-7-(5-O-phosphono-D-ribofuranosyl)-{7H-Pyrrolo[2,3-d]pyrimidine}]
IC50 [1]: 3.17 µM
IC50 [2]: 5.6 µM
IC50 ([3]; Homo sapiens, KYSE-140, KYSE140, 72 hours, read-out: IC50 of INT2-31, cell viability): 2.5 µM
effect of combination with 5-FU on cell viability ([3]; KYSE 140, 0.5 and 1 μM INT2-31): synergistic effects
sensitivity of cells to single-agent treatment ([3]; KYSE 140, 72 hours): sensitive
IC50 [4]: 2.39 µM
PARP and caspase-9 cleavage ([5]; 48 hours of treatment): PARP and caspase-9 cleavage
caspase 8 levels ([5]; Western blot): no significant effect

Reference: patent publication US20120107323A1, “KINASE PROTEIN BINDING INHIBITORS” (University of Florida, priority 2009, published 2012)
